The values below come from patent US20260240926A1, “METHOD OF MAKING A PROBIOTIC FERMENTED PRODUCT” (UNIVERSITY OF SOUTH FLORIDA, priority 2023, published 2026).

The series has as its system C57BL/6 mice. Kind of series: Chemotherapy (5-FU) induced dysbiosis model in C57BL/6 mice. In kind it is in vivo. The settings on record: 5-FU alone. The procedure: Based on previous studies, a model of chemotherapy induced dysbiosis in C57BL/6 mice using 5-Fluorouracil (5-FU) chemotherapy was established. 5-FU accelerated body weight loss (FIG. 16A), reduced microbiome diversity (FIG. 16B), increased gut permeability (FIG. 16C), damaged intestinal villi in the ileum (FIG. 16D), and impaired cognitive function (FIG. 16E). […] It was determined where the PFM has more significant protective effects compared to non-fermented probiotics (same four strains suspended in saline, instead of fermented in milk).

In the case of `O=c1[nH]cc(F)c(=O)[nH]1` [5-FU, 5-Fluorouracil], the body weight loss result was “accelerated”, the cognitive function entry is reported as “impaired”, the “intestinal villi in the ileum” value was “damaged” and the microbiome diversity result was “reduced”.
